Measurements from the NIST ThermoML archive (doi:10.1016/j.jct.2010.08.006).

Key:
[1] = xn = mol fraction of the nth substance listed; settings: 101 kPa, Liquid, Vibrating tube method
[2] = 101.33 kPa, Liquid, Vibrating tube method

[2H]O[2H] [water-d2] + C1CCOC1
mass density [kg/m3], [1]
Settings	278.15 K	288.15 K	298.15 K	308.15 K	318.15 K
x1 = 0.001848	903.83	893.06	882.16	871.13	859.96
x1 = 0.003689	903.96	893.18	882.28	871.25	860.08
x1 = 0.005866	904.1	893.33	882.43	871.4	860.22
x1 = 0.008339	904.27	893.5	882.59	871.56	860.38
x1 = 0.01068	904.43	893.65	882.75	871.72	860.54
x1 = 0.01396	904.65	893.88	882.97	871.93	860.76
x1 = 0.01768	904.91	894.13	883.23	872.19	861
x1 = 0.0203	905.09	894.31	883.4	872.36	861.18
x1 = 0.02398	905.35	894.57	883.66	872.62	861.43
x1 = 0.02882	905.69	894.9	883.99	872.95	861.76
x1 = 0.03403	906.06	895.27	884.36	873.31	862.11
x1 = 0.03668	906.25	895.46	884.55	873.49	862.3
x1 = 0.04255	906.67	895.88	884.96	873.91	862.71

C1CCOC1 [tetrahydrofuran] + O
mass density [kg/m3], [1]
Settings	278.15 K	288.15 K	298.15 K	308.15 K	318.15 K
x2 = 0.001775	903.78	893.01	882.11	871.08	859.91
x2 = 0.003887	903.87	893.1	882.19	871.16	859.99
x2 = 0.005362	903.93	893.16	882.25	871.23	860.05
x2 = 0.007677	904.02	893.25	882.35	871.32	860.15
x2 = 0.01096	904.16	893.38	882.48	871.45	860.28
x2 = 0.0142	904.29	893.52	882.61	871.58	860.41
x2 = 0.01729	904.42	893.65	882.74	871.71	860.53
x2 = 0.01971	904.52	893.75	882.84	871.81	860.63
x2 = 0.02568	904.78	894	883.09	872.06	860.88
x2 = 0.03393	905.13	894.35	883.44	872.41	861.22
x2 = 0.04278	905.52	894.74	883.83	872.79	861.6

C1CCOC1 [tetrahydrofuran]
[2]
Settings	mass density [kg/m3]
278.15 K	903.71
288.15 K	892.94
298.15 K	882.04
308.15 K	871.01
318.15 K	859.84
